Data taken from PubChem BioAssay (NCI).
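These data come from cells grown in 96-well plates and exposed to compound for 48 hours at five concentrations. TGI: concentration producing complete growth inhibition.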

Experiments:
Assay in all cases: NCI anticancer screen, dose series, 48 h
[1] = system: OVCAR-4 ovarian
[2] = system: K-562 leukemia
[3] = system: M14 melanoma
[4] = system: UACC-62 melanoma
[5] = system: SF-268 CNS
[6] = system: NCI-H226 lung
[7] = system: HCT-15 colon
[8] = system: HT29 colon
[9] = system: MALME-3M melanoma
[10] = system: RPMI-8226 leukemia
[11] = system: HOP-62 NSCLC
[12] = system: HL-60(TB) leukemia
[13] = system: NCI-H460 lung
[14] = system: HCC-2998 colon
[15] = system: SK-OV-3 ovarian
[16] = system: COLO 205 colon
[17] = system: PC-3 prostate
[18] = system: NCI-H23 lung
[19] = system: A549 NSCLC
[20] = system: HOP-92 NSCLC
[21] = system: SK-MEL-28 melanoma
[22] = system: MDA-MB-435
[23] = system: CCRF-CEM leukemia
[24] = system: U251 CNS
[25] = system: MCF7 breast
[26] = system: NCI/ADR-RES ovarian
[27] = system: DU-145 prostate
[28] = system: OVCAR-3 ovarian
[29] = system: OVCAR-8 ovarian
[30] = system: SN12C renal
[31] = system: SF-295 CNS
[32] = system: SK-MEL-5 melanoma
[33] = system: HCT-116 colon
[34] = system: EKVX NSCLC
[35] = system: RXF 393 renal
[36] = system: BT-549 breast
[37] = system: UACC-257 melanoma
[38] = system: SW-620 colon
[39] = system: MOLT-4 leukemia
[40] = system: ACHN renal
[41] = system: LOX IMVI melanoma
[42] = system: SNB-75 CNS
[43] = system: SNB-19 CNS
[44] = system: NCI-H522 lung
[45] = system: UO-31 renal
[46] = system: IGROV1 ovarian
[47] = system: TK-10 renal
[48] = system: OVCAR-5 ovarian
[49] = system: MDA-MB-231 breast
[50] = system: KM12 colon
[51] = system: HS 578T breast
[52] = system: MDA-N
[53] = system: 786-0 renal
[54] = system: T-47D breast
[55] = system: A498 renal
[56] = system: SR leukemia
[57] = system: CAKI-1 renal
[58] = system: SF-539 CNS
[59] = system: SK-MEL-2 melanoma

SMILES: c1ccc(-c2cnc(-c3ccc(-c4ncc(-c5ccccc5)o4)cc3)o2)cc1
- TGI [1]: > 100 µM
- TGI [2]: > 100 µM
- TGI [3]: > 100 µM
- TGI [4]: > 100 µM
- TGI [5]: > 100 µM
- TGI [6]: > 100 µM
- TGI [7]: > 100 µM
- TGI [8]: > 100 µM
- TGI [9]: > 100 µM
- TGI [10]: > 100 µM
- TGI [11]: > 100 µM
- TGI [12]: > 100 µM
- TGI [13]: > 100 µM
- TGI [14]: > 100 µM
- TGI [15]: > 100 µM
- TGI [16]: > 100 µM
- TGI [17]: > 100 µM
- TGI [18]: > 100 µM
- TGI [19]: > 100 µM
- TGI [20]: > 100 µM
- TGI [21]: > 100 µM
- TGI [22]: > 100 µM
- TGI [23]: > 100 µM
- TGI [24]: > 100 µM
- TGI [25]: > 100 µM
- TGI [26]: > 100 µM
- TGI [27]: > 100 µM
- TGI [28]: > 100 µM
- TGI [29]: > 100 µM
- TGI [30]: > 100 µM
- TGI [31]: > 100 µM
- TGI [32]: > 100 µM
- TGI [33]: > 100 µM
- TGI [34]: > 100 µM
- TGI [35]: > 100 µM
- TGI [36]: > 100 µM
- TGI [37]: > 100 µM
- TGI [38]: > 100 µM
- TGI [39]: > 100 µM
- TGI [40]: > 100 µM
- TGI [41]: > 100 µM
- TGI [42]: > 100 µM
- TGI [43]: > 100 µM
- TGI [44]: > 100 µM
- TGI [45]: > 100 µM
- TGI [46]: > 100 µM
- TGI [47]: > 100 µM
- TGI [48]: > 100 µM
- TGI [49]: > 100 µM
- TGI [50]: > 100 µM
- TGI [51]: > 100 µM
- TGI [52]: > 100 µM
- TGI [53]: > 100 µM
- TGI [54]: > 100 µM
- TGI [55]: > 100 µM

SMILES: Cc1cc2nc(-c3cc(C(C)(C)C)c(O)c(C(C)(C)C)c3)[nH]c2cc1C
- TGI [1]: > 23.3 µM
- TGI [2]: > 43.1 µM
- TGI [3]: > 100 µM
- TGI [4]: 2.74 µM
- TGI [5]: > 100 µM
- TGI [6]: > 100 µM
- TGI [7]: > 100 µM
- TGI [8]: > 100 µM
- TGI [9]: > 100 µM
- TGI [10]: > 100 µM
- TGI [56]: > 31.7 µM
- TGI [11]: > 100 µM
- TGI [12]: > 100 µM
- TGI [13]: > 100 µM
- TGI [14]: > 100 µM
- TGI [15]: > 100 µM
- TGI [16]: > 100 µM
- TGI [17]: > 100 µM
- TGI [18]: > 100 µM
- TGI [19]: 26.3 µM
- TGI [57]: > 26.2 µM
- TGI [20]: > 100 µM
- TGI [21]: > 100 µM
- TGI [22]: > 100 µM
- TGI [23]: 5.71 µM
- TGI [24]: > 34.3 µM
- TGI [58]: > 100 µM
- TGI [26]: > 100 µM
- TGI [27]: > 100 µM
- TGI [28]: > 100 µM
- TGI [29]: > 52.8 µM
- TGI [30]: > 100 µM
- TGI [31]: > 100 µM
- TGI [32]: > 100 µM
- TGI [34]: > 100 µM
- TGI [35]: > 100 µM
- TGI [36]: > 100 µM
- TGI [37]: > 100 µM
- TGI [38]: 13.5 µM
- TGI [39]: 27.1 µM
- TGI [40]: > 24.6 µM
- TGI [59]: > 100 µM
- TGI [41]: 28.6 µM
- TGI [42]: > 100 µM
- TGI [43]: > 100 µM
- TGI [44]: > 100 µM
- TGI [45]: > 27.4 µM
- TGI [46]: > 100 µM
- TGI [47]: > 100 µM
- TGI [48]: > 100 µM
- TGI [49]: > 100 µM
- TGI [50]: > 28.8 µM
- TGI [51]: > 100 µM
- TGI [52]: > 44.5 µM
- TGI [53]: 2.73 µM
- TGI [54]: > 100 µM
- TGI [55]: > 100 µM
